Here are results for four sequences from patent publication US20070128217A1 (priority 2003, published 2007).

Experiment [1] relates to antibodies in sera from SARS patients (sera 1a, 1b, 2, 6, 37, 62, London, SARS-yellow, SARS-green). Format: binding, human. Further details: Binding of serum 6 to linear peptides of protein X1 of SARS-CoV Urbani / Binding of serum 37 to linear peptides of protein X1 of SARS-CoV Urbani / Binding of serum 6 to looped/cyclic peptide (PEPSCAN-ELISA) / Binding of serum 37 to looped/cyclic peptide (PEPSCAN-ELISA) / Binding of serum 37 to looped/cyclic peptides of protein X1 of SARS-CoV Urbani / Binding of serum 6 to linear peptides of protein X2 / Binding of serum 37 to linear peptides of protein X2 / Binding of serum 37 to looped/cyclic peptides of protein X2 of SARS-CoV Urbani / Binding of serum 6 to linear peptides of protein M of SARS-CoV Urbani / Binding of serum 37 to linear peptides of protein M of SARS-CoV Urbani / Binding of serum 6 to looped/cyclic peptides of protein M of SARS-CoV Urbani / Binding of serum 37 to looped/cyclic peptides of protein M of SARS-CoV Urbani / Binding of serum 6 to linear peptides of protein X3 of SARS-CoV Urbani / Binding of serum 37 to linear peptides of protein X3 of SARS-CoV Urbani / Binding of serum 37 to looped/cyclic peptides of protein X3 of SARS-CoV Urbani / Binding of serum 6 to linear peptides of protein X4 of SARS-CoV Urbani / Binding of serum 37 to linear peptides of protein X4 of SARS-CoV Urbani / Binding of serum 37 to looped/cyclic peptides of protein X4 of SARS-CoV Urbani / Binding of serum 6 to linear peptides of protein X5 of SARS-CoV Urbani / Binding of serum 37 to linear peptides of protein X5 of SARS-CoV Urbani / Binding of serum 37 to looped/cyclic peptides of protein X5 of SARS-CoV Urbani / Binding of serum 6 to linear peptides of protein N of SARS-CoV Urbani / Binding of serum 37 to linear peptides of protein N of SARS-CoV Urbani / Binding of serum 6 to linear peptide (PEPSCAN-ELISA) / Binding of serum 1a to looped/cyclic peptides of protein N of SARS-CoV Urbani / Binding of serum 1b to looped/cyclic peptides of protein N of SARS-CoV Urbani / Binding of serum 2 to looped/cyclic peptides of protein N of SARS-CoV Urbani / Binding of serum 6 to looped/cyclic peptides of protein N of SARS-CoV Urbani / Binding of serum 37 to looped/cyclic peptides of protein N of SARS-CoV Urbani / Binding of serum 62 to looped/cyclic peptides of protein N of SARS-CoV Urbani / Binding of serum London to looped/cyclic peptides of protein N of SARS-CoV Urbani / Binding of serum SARS-green to looped/cyclic peptides of protein N of SARS-CoV Urbani: unit not given here.

Experiment [2] relates to control sera (pooled serum of ten healthy LUMC hospital workers; commercial negative donor pooled serum from the Dutch bloodbank). In kind it is binding, human. Further details: Binding of Control serum LUMC to linear peptides / Binding of Control serum Blood-bank to linear peptides / Binding of Control serum LUMC to looped peptides / Binding of Control Serum Blood-Bank to Looped peptides / Binding of Control serum LUMC to linear peptides of the protein M of SARS-CoV Urbani / Binding of Control serum Blood-bank to linear peptides of the protein M of SARS-CoV Urbani / Binding of Control serum LUMC to looped peptides of the protein M of SARS-CoV Urbani / Binding of Control Serum Blood-Bank to Looped peptides of the protein M of SARS-CoV Urbani: unit not given here.

In experiment [3] the test system is rabbit serum obtained by immunizing a rabbit with the SARS-CoV strain Frankfurt 1. In kind it is binding. Further details: Binding of a rabbit serum to linear peptides / Binding of a rabbit serum to looped peptides / Rabbit serum linear peptides / Rabbit serum looped peptides / Binding of a rabbit serum to linear peptides of protein N of SARS-CoV Urbani (Rabbit serum linear peptides) / Binding of a rabbit serum to looped/cyclic peptides of protein N of SARS-CoV Urbani (Rabbit serum looped peptides): unit not given here.

Take WNLDVIISSIVRQLF: in experiment [1], the “Binding of serum 1a to linear peptides of protein X3 of SARS-CoV Urbani” value stood at 0.7, the “Binding of serum 1a to looped/cyclic peptides of protein X3 of SARS-CoV Urbani” value came out at 0.5, the “Binding of serum 1b to linear peptides of protein X3 of SARS-CoV Urbani” value came out at 0.2 and the “Binding of serum 1b to looped/cyclic peptides of protein X3 of SARS-CoV Urbani” value was found to be 0.3. For the same sequence, in experiment [1], the “Binding of serum 2 to linear peptides of protein X3 of SARS-CoV Urbani” value was found to be 0.4, the “Binding of serum 2 to looped/cyclic peptides of protein X3 of SARS-CoV Urbani” value turned out to be 0.4, the “Binding of serum 6 to linear peptides of protein X3 of SARS-CoV Urbani” value is on record as 0.4 and the “Binding of serum 6 to looped/cyclic peptides of protein X3 of SARS-CoV Urbani” value was found to be 0.4. Besides, in experiment [1], the “Binding of serum 37 to linear peptides of protein X3 of SARS-CoV Urbani” value is 0.6, the “Binding of serum 37 to looped/cyclic peptides of protein X3 of SARS-CoV Urbani” value came to 0.4, the “Binding of serum 62 to linear peptides of protein X3 of SARS-CoV Urbani” value turned out to be 0.6 and the “Binding of serum 62 to looped/cyclic peptides of protein X3 of SARS-CoV Urbani” value worked out at 0.4. Also, in experiment [1], the “Binding of serum London to linear peptides of protein X3 of SARS-CoV Urbani” value was 0.5, the “Binding of serum London to looped/cyclic peptides of protein X3 of SARS-CoV Urbani” value came out at 0.2, the “Binding of serum SARS-green to linear peptides of protein X3 of SARS-CoV Urbani” value is 0.2 and the “Binding of serum SARS-green to looped/cyclic peptides of protein X3 of SARS-CoV Urbani” value was found to be 0.2. Further, in experiment [1], the “Binding of serum SARS-yellow to linear peptides of protein X3 of SARS-CoV Urbani” value came to 0.2 and the “Binding of serum SARS-yellow to looped/cyclic peptides of protein X3 of SARS-CoV Urbani” value was found to be 0.5. In experiment [2], the “Binding of Control Serum Blood-Bank to Looped peptides of the protein X3 of SARS-CoV Urbani” value amounted to 0.8, the “Binding of Control serum Blood-bank to linear peptides of the protein X3 of SARS-CoV Urbani” value came out at 0.6, the “Binding of Control serum LUMC to linear peptides of the protein X3 of SARS-CoV Urbani” value is 0.3 and the “Binding of Control serum LUMC to looped peptides of the protein X3 of SARS-CoV Urbani” value was found to be 0.7. Moreover, in experiment [3], the “Rabbit serum linear peptides” value is given as 0.1 and the “Rabbit serum looped peptides” value is 0.2.
Turning to WPVTLACFVLAAVYR, in experiment [1], the “Binding of serum 1a to linear peptides of protein M of SARS-CoV Urbani” value amounted to 0.7, the “Binding of serum 1a to looped/cyclic peptides of protein M of SARS-CoV Urbani” value is 0.8, the “Binding of serum 1b to linear peptides of protein M of SARS-CoV Urbani” value was 0.5 and the “Binding of serum 1b to looped/cyclic peptides of protein M of SARS-CoV Urbani” value is on record as 0.6. Also, in experiment [1], the “Binding of serum 2 to linear peptides of protein M of SARS-CoV Urbani” value was found to be 0.4, the “Binding of serum 2 to looped/cyclic peptides of protein M of SARS-CoV Urbani” value was determined as 0.8, the “Binding of serum 6 to linear peptides of protein M of SARS-CoV Urbani” value turned out to be 0.3 and the “Binding of serum 6 to looped/cyclic peptides of protein M of SARS-CoV Urbani” value is 1.1. Also, in experiment [1], the “Binding of serum 37 to linear peptides of protein M of SARS-CoV Urbani” value turned out to be 0.4, the “Binding of serum 37 to looped/cyclic peptides of protein M of SARS-CoV Urbani” value is recorded as 0.8, the “Binding of serum 62 to linear peptides of protein M of SARS-CoV Urbani” value was found to be 0.4 and the “Binding of serum 62 to looped/cyclic peptides of protein M of SARS-CoV Urbani” value was found to be 1.1. Further, in experiment [1], the “Binding of serum London to linear peptides of protein M of SARS-CoV Urbani” value is listed as 0.3, the “Binding of serum London to looped/cyclic peptides of protein M of SARS-CoV Urbani” value came out at 0.4, the “Binding of serum SARS-green to linear peptides of protein M of SARS-CoV Urbani” value came out at 0.4 and the “Binding of serum SARS-green to looped/cyclic peptides of protein M of SARS-CoV Urbani” value turned out to be 0.2. Also, in experiment [1], the “Binding of serum SARS-yellow to linear peptides of protein M of SARS-CoV Urbani” value was determined as 0.2 and the “Binding of serum SARS-yellow to looped/cyclic peptides of protein M of SARS-CoV Urbani” value was determined as 0.4. For the same sequence, in experiment [2], the “Binding of Control Serum Blood-Bank to Looped peptides of the protein M of SARS-CoV Urbani” value was determined as 0.8, the “Binding of Control serum Blood-bank to linear peptides of the protein M of SARS-CoV Urbani” value turned out to be 0.7, the “Binding of Control serum LUMC to linear peptides of the protein M of SARS-CoV Urbani” value is 0.5 and the “Binding of Control serum LUMC to looped peptides of the protein M of SARS-CoV Urbani” value was determined as 1.2. Moreover, in experiment [3], the “Rabbit serum linear peptides” value was 0.2 and the “Rabbit serum looped peptides” value is recorded as 0.4.
For the sequence YFVASFRLFARTRSM, in experiment [1], the “Binding of serum 1a to linear peptides of protein M of SARS-CoV Urbani” value is on record as 0.6, the “Binding of serum 1b to linear peptides of protein M of SARS-CoV Urbani” value was 0.4, the “Binding of serum 2 to linear peptides of protein M of SARS-CoV Urbani” value was found to be 0.4 and the “Binding of serum 6 to linear peptides of protein M of SARS-CoV Urbani” value was 0.4. Further, in experiment [1], the “Binding of serum 37 to linear peptides of protein M of SARS-CoV Urbani” value turned out to be 0.4, the “Binding of serum 62 to linear peptides of protein M of SARS-CoV Urbani” value is 0.6, the “Binding of serum London to linear peptides of protein M of SARS-CoV Urbani” value is listed as 0.3 and the “Binding of serum SARS-green to linear peptides of protein M of SARS-CoV Urbani” value came out at 0.3. Also, in experiment [1], the “Binding of serum SARS-yellow to linear peptides of protein M of SARS-CoV Urbani” value was found to be 0.1; the “Recognition of the peptide by sera of SARS-CoV infected individuals, and form (linear, looped/cyclic) in which it is recognized” value is “recognized in looped/cyclic form”. Besides, in experiment [2], the “Binding of Control Serum Blood-Bank to Looped peptides of the protein M of SARS-CoV Urbani” value amounted to 0.9, the “Binding of Control serum Blood-bank to linear peptides of the protein M of SARS-CoV Urbani” value is listed as 0.6, the “Binding of Control serum LUMC to linear peptides of the protein M of SARS-CoV Urbani” value is 0.3 and the “Binding of Control serum LUMC to looped peptides of the protein M of SARS-CoV Urbani” value turned out to be 0.7. For the same sequence, in experiment [3], the “Rabbit serum linear peptides” value is on record as 0.6 and the “Rabbit serum looped peptides” value came to 0.8.
As for YHITVSQIQLSLLKV, in experiment [1], the “Binding of serum 1a to linear peptides of protein X2” value is 0.6, the “Binding of serum 1a to looped/cyclic peptides of protein X2 of SARS-CoV Urbani” value is listed as 0.4, the “Binding of serum 1b to linear peptides of protein X2” value is 0.5 and the “Binding of serum 1b to looped/cyclic peptides of protein X2 of SARS-CoV Urbani” value was found to be 0.4. In addition, in experiment [1], the “Binding of serum 2 to linear peptides of protein X2” value stood at 0.5, the “Binding of serum 2 to looped/cyclic peptides of protein X2 of SARS-CoV Urbani” value is 0.4, the “Binding of serum 6 to linear peptides of protein X2” value stood at 0.5 and the “Binding of serum 6 to looped/cyclic peptides of protein X2 of SARS-CoV Urbani” value came to 0.1. Moreover, in experiment [1], the “Binding of serum 37 to linear peptides of protein X2” value amounted to 0.7, the “Binding of serum 37 to looped/cyclic peptides of protein X2 of SARS-CoV Urbani” value is on record as 0.4, the “Binding of serum 62 to linear peptides of protein X2” value is listed as 0.5 and the “Binding of serum 62 to looped/cyclic peptides of protein X2 of SARS-CoV Urbani” value is 0.5. Besides, in experiment [1], the “Binding of serum London to linear peptides of protein X2” value was determined as 0.4, the “Binding of serum London to looped/cyclic peptides of protein X2 of SARS-CoV Urbani” value came to 0.2, the “Binding of serum SARS-green to linear peptides of protein X2” value stood at 0.1 and the “Binding of serum SARS-green to looped/cyclic peptides of protein X2 of SARS-CoV Urbani” value is listed as 0.3. In addition, in experiment [1], the “Binding of serum SARS-yellow to linear peptides of protein X2” value is on record as 0.6 and the “Binding of serum SARS-yellow to looped/cyclic peptides of protein X2 of SARS-CoV Urbani” value was 0.4. In experiment [2], the “Binding of Control Serum Blood-Bank to Looped peptides” value is on record as 0.3, the “Binding of Control serum Blood-bank to linear peptides” value worked out at 0.6, the “Binding of Control serum LUMC to linear peptides” value is listed as 0.7 and the “Binding of Control serum LUMC to looped peptides” value worked out at 0.4. Further, in experiment [3], the “Binding of a rabbit serum to linear peptides” value is listed as 0.8 and the “Binding of a rabbit serum to looped peptides” value was determined as 0.3.
